Assay results published in paper PMC10020666, “Oxidation modulates LINGO2-induced inactivation of large conductance, Ca^2+-activated potassium channels” (The Journal of Biological Chemistry, 2023).
“Also recorded” adds a separate entry of the source. Like-named read-outs stand apart in the source and are kept apart here. Square brackets hold non-standard residues; d marks the D form. Peptide text beside a SMILES is read from it. Met(O) = CS(=O)CC[C@H](N)C(=O)O

Experiments:
[1] = biological target: T1, BKα currents (BK channels) in HEK cell patches (Oryctolagus cuniculus, UniProt Q9BG98); assay: Inhibition of BKα currents by synthetic LINGO2 tail peptides (excised inside-out patch clamp); type: cell-based, rabbit; settings: 1 μM Ca2+; for IC50Last5ms increase compared to WT LINGO2 peptide / 95% Confidence Intervals of IC50Last5ms: +160 mV; for IC50Last5ms increase compared to WT LINGO2 peptide: p < 0.001, extra sum of squares F-test; for IC50: step to +160 mV for 100 ms from -60 mV, inside-out patches, 37 °C, pH 7.2, Hill-Langmuir fit, mean ± SD; for Inactivation of BK currents by peptide: step to +160 mV, rate compared at 1 μM peptide
T1 construct: expressed in transfected cells; host or cells: HEK293 cells, transient transfection with lipofectamine (BKα cDNA plus GFP plasmid)
T1 sequence (Q9BG98 whole entry): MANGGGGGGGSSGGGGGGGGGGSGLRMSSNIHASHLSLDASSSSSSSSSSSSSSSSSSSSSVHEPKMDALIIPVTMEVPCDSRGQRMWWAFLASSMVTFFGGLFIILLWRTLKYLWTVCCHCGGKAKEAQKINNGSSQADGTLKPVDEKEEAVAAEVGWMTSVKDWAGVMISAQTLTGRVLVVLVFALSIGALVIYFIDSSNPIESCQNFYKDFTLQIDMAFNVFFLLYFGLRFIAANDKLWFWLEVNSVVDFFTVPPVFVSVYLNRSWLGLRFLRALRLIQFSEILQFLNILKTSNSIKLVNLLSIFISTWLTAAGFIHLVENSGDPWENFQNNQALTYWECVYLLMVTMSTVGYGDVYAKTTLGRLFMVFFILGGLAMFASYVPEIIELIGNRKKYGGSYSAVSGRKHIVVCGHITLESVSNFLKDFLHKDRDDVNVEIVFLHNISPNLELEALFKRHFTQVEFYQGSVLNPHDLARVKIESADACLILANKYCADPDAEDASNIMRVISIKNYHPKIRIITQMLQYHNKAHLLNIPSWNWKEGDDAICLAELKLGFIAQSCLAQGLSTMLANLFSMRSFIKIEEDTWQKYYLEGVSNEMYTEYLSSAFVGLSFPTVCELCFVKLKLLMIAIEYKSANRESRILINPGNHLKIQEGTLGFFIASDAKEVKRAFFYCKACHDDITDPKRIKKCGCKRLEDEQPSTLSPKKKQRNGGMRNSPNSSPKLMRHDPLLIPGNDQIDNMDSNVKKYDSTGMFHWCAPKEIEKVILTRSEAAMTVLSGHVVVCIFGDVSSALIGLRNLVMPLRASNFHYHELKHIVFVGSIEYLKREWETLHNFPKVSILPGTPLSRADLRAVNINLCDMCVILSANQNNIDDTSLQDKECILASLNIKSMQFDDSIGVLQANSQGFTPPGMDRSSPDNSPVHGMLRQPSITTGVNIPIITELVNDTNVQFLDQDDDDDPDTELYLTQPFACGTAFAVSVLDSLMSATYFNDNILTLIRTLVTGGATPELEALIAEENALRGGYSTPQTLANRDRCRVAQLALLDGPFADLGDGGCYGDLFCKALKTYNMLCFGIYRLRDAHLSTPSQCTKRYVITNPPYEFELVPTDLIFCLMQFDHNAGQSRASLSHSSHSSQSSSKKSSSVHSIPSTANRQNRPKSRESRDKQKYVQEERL
Protocol: (§1) All excised patch experiments were performed at 37 °C in 140 mM symmetrical K^+ solutions which contained 140 mM KCl, 10 mM glucose, 10 mM Hepes, and either 1 mM ethylene glycol-bis(β-amino ether)-N,N,N′,N′-tetraacetic acid (EGTA (for free [Ca^2+] 100 nM to 300 nM) or 1 mM hydroxyethylethylenediaminetriacetic acid (HEDTA for free [Ca^2+] 1 μM to 10 μM) and the pH of all solutions was adjusted to 7.2 with KOH. These solutions were made with double-distilled, deionized, filtered water from a MilliQ water purification system. The pipette solution contained 100 nM free Ca^2+. We used “Chelator” (https://www.ru.nl/animal/research/chelator/) to calculate the total amount of Ca^2+ required, as per Schoenmakers et al., ([40]) and free Ca^2+ concentrations were checked with a Ca^2+ sensitive electrode.
(§2) During experiments, the dish containing HEK cells was superfused with Hanks solution, which contained (in mM) 129.8 Na^+, 5.8 K^+, 135 Cl^-, 4.17 HCO3^-, 0.34 HPO4^2-, 0.44 H2PO4^-, 1.8 Ca^2+, 0.9 Mg^2+, 0.4 SO4^2-, 10 glucose, 2.9 sucrose, and 10 Hepes, and its pH was adjusted to 7.4 with NaOH. In addition, the patch under study was continuously superfused by means of a close delivery system consisting of a pipette (tip diameter 200 μm) placed approximately 300 μm away from the cell. This could be switched, with a dead-space time of around 5 s, to a solution containing a drug.
(§3) Electrodes were pulled from Corning borosilicate glass (1.5 mm O.D. × 0.86 mm I.D.) using a Sutter P-97 pipette puller and fire polished using a Narashige MF 83 microforge. Pipettes had resistances of 2 to 5 MΩ when filled with recording solutions and series resistance was compensated by up to 80%. Standard single-channel patch clamp recording methods were used. Voltage clamp commands were delivered via an Axopatch 200B patch clamp amplifier (Axon Instruments) connected to a Digidata 1322A AD/DA converter (Axon Instruments) interfaced to computers running pClamp software (Axon Instruments). Data was acquired at 100 KHz and filtered at 2 KHz or 5 KHz. Patches were held at either −60 mV or −100 mV and depolarized in 20 mV increments to 200 mV. Residual capacitance and leakage currents were subtracted using either a P/4 protocol or offline by manual leak subtraction.
(§4) The human LINGO2 transcript used [NM_001354575.2] was untagged in a pcDNA 3.1 vector (VectorBuilder). The α subunit of the rabbit BK channel was isolated from rabbit urethral smooth muscle and cloned using the pcDNA TOPO DNA cloning kit (Life Technologies). The identifiesd transcript corresponded to the ZERO variant of mouse BKα and to variant 2 (NM_002247.3) of human BKα. We used 100 ng ml^−1 cDNA for BKα only transfections, whereas a 100:500 ng ml^−1 cDNA ratio was used for BKα:LINGO2 and BKα:LINGO1 cotransfections for inside-out patch recordings. GFP (150 ng ml^−1) was included in all transfections except those used for Figure 2, C and D. cDNA was transiently transfected into HEK cells using lipofectamine. Site-directed mutagenesis used the Phusion kit (Thermo Fisher Scientific) method ([41]) and all mutations were confirmed by sequencing.
(§5) HEK293 cells were cultured in Dulbecco's modified Eagle's medium + MEM media containing 10% fetal bovine serum and 1% Penicillin-Streptomycin antibiotics at 37 °C, and 95% humidifying incubator containing 5% CO2. Subculturing was done by 0.05% Trypsin-EDTA solution.
Concentration–effect data were fitted with a Hill–Langmuir equation:[4] I/Icontrol=1/{1+10^ˆ(log[Drug]−logIC50)} where, I was the current recorded in the drug, Icontrol was the current in the absence of drug, IC50 was the half-maximal effective concentration, and [Drug] was the concentration variable.
All data is presented as mean ± SD and was analyzed with Prism software (GraphPad). Individual data points are also shown in bar charts. […]

[2] = test system: BK:LINGO2 channels; assay: Effect of oxidizing/reducing agents on BK:LINGO2 currents (inside-out patch, step to +160 mV); type: cell-based, rabbit BKα, human LINGO2
Protocol: as §1, §2, §3, §4, §5
All data is presented as mean ± SD and was analyzed with Prism software (GraphPad). Individual data points are also shown in bar charts. Statistical differences were assessed using either paired or unpaired nonparametric tests (Wilcoxin signed-rank test, Mann–Whitney test), or the extra sum of squares F-test, as appropriate. Comparisons of three or more nonparametric data sets used Friedman’s test followed by Dunn’s test for multiple comparisons, whereas ANOVA was used for three or more parametric data sets. p < 0.05 was taken as significant.

[3] = biological target: α subunit of the rabbit BK channel (large conductance, Ca2+ and voltage-activated K+ channel) (rabbit)
[4] = n = 5 (M605 oxidized), 6 (M603 oxidized), 7 (both), read-out: IC50Last5ms (half maximal block of current amplitude in last 5 ms of pulse)

## CC[C@H](C)[C@H](NC(=O)[C@H](CCSC)NC(=O)[C@H](CCCCN)NC(=O)[C@H](CC[S+](C)[O-])NC(=O)[C@H](CC(N)=O)NC(=O)[C@H](Cc1ccccc1)NC(=O)[C@H](CCCNC(=N)N)NC(=O)[C@H](CCCNC(=N)N)NC(C)=O)C(N)=O (stereo partly drawn) [Ac-RRFNM(O)KMI-NH2] (Ac-RRFN[Met(O)]KMI-NH2)
[1]
  IC50Last5ms increase compared to WT LINGO2 peptide: ~27 fold
  Inactivation of BK currents by peptide: slower than that of the WT peptide
[1]; [4]
  IC50: 6900 ± 500 nM

## Ac-RRFNMKMI-NH2 [Ac-RRFNMKMI-NH2]
[1]; n = 6
  95% Confidence Intervals of IC50Last5ms: 223 to 303 nM
[1]; n = 6, read-out: IC50Last5ms (half maximal block of current amplitude in last 5 ms of pulse)
  IC50: 260 ± 78 nM
[1]
  Inactivation of BK currents by peptide: caused inactivation, the rate of which was concentration-dependent

## CC[C@H](C)[C@H](NC(=O)[C@H](CC[S+](C)[O-])NC(=O)[C@H](CCCCN)NC(=O)[C@H](CCSC)NC(=O)[C@H](CC(N)=O)NC(=O)[C@H](Cc1ccccc1)NC(=O)[C@H](CCCNC(=N)N)NC(=O)[C@H](CCCNC(=N)N)NC(C)=O)C(N)=O (stereo partly drawn) [Ac-RRFNMKM(O)I-NH2] (Ac-RRFNMK[Met(O)]I-NH2)
[1]; n = 5-7
  95% Confidence Intervals of IC50Last5ms: 2000 to 2700 nM
[1]; [4]
  IC50: 2300 ± 700 nM
[1]
  Inactivation of BK currents by peptide: the rate of inactivation was slower compared to that observed with the WT peptide

## CC[C@H](C)[C@H](NC(=O)[C@H](CC[S+](C)[O-])NC(=O)[C@H](CCCCN)NC(=O)[C@H](CC[S+](C)[O-])NC(=O)[C@H](CC(N)=O)NC(=O)[C@H](Cc1ccccc1)NC(=O)[C@H](CCCNC(=N)N)NC(=O)[C@H](CCCNC(=N)N)NC(C)=O)C(N)=O (stereo partly drawn) [Ac-RRFNM(O)KM(O)I-NH2] (Ac-RRFN[Met(O)]K[Met(O)]I-NH2)
[1]
  IC50Last5ms increase compared to WT LINGO2 peptide: ~50 fold
  Inactivation of BK currents by peptide: greatly reduced
[1]; [4]
  IC50: 13900 ± 1100 nM
[1]; listed as RRFNM(O)KM(O)I
  Inactivation of BK currents by peptide: inactivation was practically abolished at all concentrations tested
[1]; listed as peptide containing Met(O) at both positions
  Inactivation of BK currents by peptide: time-dependent inactivation was practically abolished

## O[C@@H](CS)[C@@H](O)CS [DTT]
[2]; 100 μM DTT, 1-5 min, 100 nM Ca2+, 5 to 7 experiments
  Effect of DTT alone on peak or sustained currents: failed to alter the peak (black circles) or sustained (purple diamonds) currents
[2]; 100 μM DTT, then with Ch-T 5-7 min, 100 nM Ca2+, 5 to 7 experiments
  Prevention of Ch-T effects by DTT pretreatment / continuous presence: not prevented; also recorded: the effects of Ch-T were unaltered in the continuous presence of DTT; also recorded: resistant to treatment with the cysteine-specific reducing agent DTT
[2]; 200 μM Ch-T 1-4 min, then Ch-T + DTT 4-7 min, 4 to 7 experiments
  Reversal of Ch-T effects by DTT coapplication: unable to reverse the effects of Ch-T

B1: LINGO2 tail peptide Ac-RRFNM(O)KMI-NH2 (peptide)
peptide: Ac-RRFN[Met(O)]KMI-NH2
SMILES: CC[C@H](C)[C@H](NC(=O)[C@H](CCSC)NC(=O)[C@H](CCCCN)NC(=O)[C@H](CCS(C)=O)NC(=O)[C@H](CC(N)=O)NC(=O)[C@H](Cc1ccccc1)NC(=O)[C@H](CCCNC(=N)N)NC(=O)[C@H](CCCNC(=N)N)NC(C)=O)C(N)=O
[3]
  IC50Last5ms: concentration of the peptide that produced half maximal block in BKα current amplitude in the last 5 ms of a pulse to +160 mV (inside-out HEK patches, 1 μM Ca2+): 6900 nM

B2: LINGO2 tail peptide Ac-RRFNM(O)KM(O)I-NH2 (peptide)
peptide: Ac-RRFN[Met(O)]K[Met(O)]I-NH2
SMILES: CC[C@H](C)[C@H](NC(=O)[C@H](CCS(C)=O)NC(=O)[C@H](CCCCN)NC(=O)[C@H](CCS(C)=O)NC(=O)[C@H](CC(N)=O)NC(=O)[C@H](Cc1ccccc1)NC(=O)[C@H](CCCNC(=N)N)NC(=O)[C@H](CCCNC(=N)N)NC(C)=O)C(N)=O
[3]
  IC50Last5ms: concentration of the peptide that produced half maximal block in BKα current amplitude in the last 5 ms of a pulse to +160 mV (inside-out HEK patches, 1 μM Ca2+): 13900 nM

B3: LINGO2 tail peptide Ac-RRFNMKM(O)I-NH2 (peptide)
peptide: Ac-RRFNMK[Met(O)]I-NH2
SMILES: CC[C@H](C)[C@H](NC(=O)[C@H](CCS(C)=O)NC(=O)[C@H](CCCCN)NC(=O)[C@H](CCSC)NC(=O)[C@H](CC(N)=O)NC(=O)[C@H](Cc1ccccc1)NC(=O)[C@H](CCCNC(=N)N)NC(=O)[C@H](CCCNC(=N)N)NC(C)=O)C(N)=O
[3]
  IC50Last5ms: concentration of the peptide that produced half maximal block in BKα current amplitude in the last 5 ms of a pulse to +160 mV (inside-out HEK patches, 1 μM Ca2+): 2300 nM

## Ac-RRFNMKMI-NH2 [LINGO2 tail peptide Ac-RRFNMKMI-NH2]
[3]
  IC50Last5ms: concentration of the peptide that produced half maximal block in BKα current amplitude in the last 5 ms of a pulse to +160 mV (inside-out HEK patches, 1 μM Ca2+): 260 nM
